Molecules are shown by their SMILES. Activity calls are given as the source filed them.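 Rule for the calls: active = fitted curve drops below -35% activity at a concentration within twice the top valid tested dose; inconclusive = no clear call, values can overlap the other calls; inactive = signal rising instead of falling, among other cases.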

The first assay can be described thus: ATP-based viability loss in HepG2 cells – cell-based, CellTiter-Glo luminescence, cherry-pick, set 3, cytotoxicity control, dose response (AID 720589). The following applies: HepG2 viability, ATP luminescence (CellTiter-Glo), 72 h; at 0.011 µM; stronger effect = lower value; 0% = untreated, negative = ATP loss.
On to `CCS(=O)(=O)N1Cc2ccccc2CC1C(=O)Nc1nnc(SCc2ccc(C#N)cc2)s1` (stereo not drawn), for which the max activity is 21.9% (inactive).

As to `C/C=C/c1ccc([C@H]2[C@@H](CO)N3C(=O)CN(S(=O)(=O)c4cccc(F)c4)C[C@@H]23)cc1`, the max activity was 26.3% (inactive).

As for `C(=C\c1ccc(C2[C@H]3CNC[C@@H]2N3Cc2ccccn2)cc1)/c1ccccc1` (stereo partly drawn), the max activity is -23.3% (inactive). The same measure, in the same setting: then `COc1ccc(C=NNc2nc3ccccc3s2)cc1`, with -25.7% (inactive); and `CC(=O)N1CCCC(c2cc(C(=O)Nc3ccccc3)no2)C1` (stereo not drawn), with 15.4% (inactive); and `Cc1ccc(N=C2NC(=O)/C(=C\c3cccs3)S2)cc1C`, with -17.8% (inactive). `Cc1cccc(/C=N/Nc2ccc3ccccc3n2)c1`: the max activity was 29% (inactive).

Still in this assay, the particulars now being: HepG2 viability, ATP luminescence (CellTiter-Glo), 72 h; at 0.035 µM; stronger effect = lower value; 0% = untreated, negative = ATP loss.
With `C[C@H]1CN([C@@H](C)CO)C(=O)Cc2cc(NC(=O)C3CC3)ccc2O[C@H]1CN(C)S(=O)(=O)c1ccc(Cl)cc1`, the max activity is -39.2% (inactive).

Still in this assay, the particulars now being: HepG2 viability, ATP luminescence (CellTiter-Glo), 72 h; at 0.1 µM; stronger effect = lower value; 0% = untreated, negative = ATP loss.
As to `Cc1ccc(S(=O)(=O)N(C)C[C@@H]2Oc3cc(C#Cc4ccncc4)ccc3S(=O)(=O)N([C@@H](C)CO)C[C@H]2C)cc1`, the max activity was -24.6% (inactive). On the same count and under the same terms, then `Cc1ccc(S(=O)(=O)N(C)C[C@H]2Oc3c(cccc3N(C)C)C(=O)N([C@@H](C)CO)C[C@@H]2C)cc1`, with -28.2% (inactive). Turning to `COC(=O)C[C@@H]1CC[C@@H]2[C@H](COc3ccc(NC(=O)Nc4cccc(C#N)c4)cc3C(=O)N2C)O1`, the max activity is 28.5% (inactive). On the same count and under the same terms, then `CC(=O)Nc1cc(C(=O)NCc2ccco2)ccc1Sc1ccc(F)cc1`, with -21.9% (inactive); and `CCOC(=O)C1CCCCN1C(=O)CCc1c(C)nc2cc(-c3ccccc3)nn2c1C` (stereo not drawn), with 21.3% (inactive). On the same count and under the same terms, with `C[C@H](CO)N1C[C@H](C)[C@H](CN(C)Cc2ccc(C(F)(F)F)cc2)Oc2c(NS(=O)(=O)c3ccc(Cl)cc3)cccc2C1=O` the figure was -20% (inactive). On the same count and under the same terms, then `Cc1noc(C)c1NC(=O)Nc1ccc2c(c1)CC(=O)N([C@@H](C)CO)C[C@@H](C)[C@@H](CN(C)Cc1ccc(Cl)c(Cl)c1)O2`, with 36.5% (inactive); and `CCCNC(=O)N1[C@H](C#N)[C@H](c2ccc(C#Cc3ccc(F)cc3)cc2)[C@H]1CO`, with -28.6% (inactive).

As to `COc1ccc(OC)c(-c2cc(C(F)(F)F)c3c(n2)sc2c(O)cc(=O)[nH]c23)c1`, the max activity is -37% (inactive).

The same assay, now with this note: HepG2 viability, ATP luminescence (CellTiter-Glo), 72 h; at 0.3 µM; stronger effect = lower value; 0% = untreated, negative = ATP loss.
In the case of `OCCN1CCN(C(=S)c2ccc(-c3ccccc3)cc2)CC1`, the max activity is -28.5% (inactive). Still for that read-out and setting: with `COC(=O)C[C@@H]1CC[C@@H]2[C@H](COc3ccc(NC(=O)c4cc(C)on4)cc3C(=O)N2C)O1` the figure was -20% (inactive). Take `COc1ccc(C2=Nn3c(nnc3-c3ccccc3F)SC2)cc1OC1CCOC1` (stereo not drawn): the max activity is -28.9% (inactive). The same measure, in the same setting: with `CCOc1ccccc1CNC(=O)c1ccc(Sc2ccc(Cl)cc2)c(NC(C)=O)c1` the figure was -29.5% (inactive); with `O=C1c2ccccc2C(=O)N1CCCCNc1ccccc1`, -34.9% (inactive); with `O=c1c2ccccc2oc2cc(C#CC3(O)CCCCC3)ccc12`, 13.9% (inactive). Still for that read-out and setting: with `O=C(CNC(=O)Cc1ccccc1)N=Nc1c(O)n(Cc2ccc3c(c2)OCO3)c2ccccc12` the figure was -28.9% (inactive); with `COc1cc(-c2cnc3c(NC=O)cc(-c4cccc(NC(C)=O)c4)cn23)cc(OC)c1OC`, -32.8% (inactive). On the same count and under the same terms, then `N#C[C@H]1[C@H](c2ccc(-c3ccccc3F)cc2)[C@@H](CO)N1C(=O)Cc1ccccc1`, with -22.2% (inactive).

The same assay, now with this note: HepG2 viability, ATP luminescence (CellTiter-Glo), 72 h; at 0.8 µM; stronger effect = lower value; 0% = untreated, negative = ATP loss.
As to `Cc1ccc(S(=O)(=O)N(C)C[C@@H]2Oc3ccc(NC(=O)CCCCCC(=O)Nc4ccccc4N)cc3CC(=O)N([C@@H](C)CO)C[C@@H]2C)cc1`, the max activity was -38.7% (inactive).

Still in this assay, the particulars now being: HepG2 viability, ATP luminescence (CellTiter-Glo), 72 h; at 0.9 µM; stronger effect = lower value; 0% = untreated, negative = ATP loss.
For `N#C[C@H]1[C@H](c2ccc(-c3ccccc3F)cc2)[C@@H](CO)N1C(=O)c1ccccn1`, the max activity was -27.4% (inactive). On the same count and under the same terms, then `COC(=O)C[C@@H]1CC[C@@H]2[C@H](COc3ccc(NC(=O)c4ccc(F)cc4)cc3C(=O)N2C)O1`, with -31.5% (inactive); and `COC(=O)C[C@@H]1CC[C@@H]2[C@H](COc3ccc(NC(=O)Nc4cccc(Cl)c4)cc3C(=O)N2C)O1`, with -25.8% (inactive); and `COC(=O)c1cccc(NC(=O)NC(=O)c2ccccc2Cl)c1`, with -19.2% (inactive).

With `Brc1ccc(CSc2nnc(-c3ccco3)o2)cc1`, the max activity is -28.4% (inactive).

In the case of `Cc1c(Cl)cccc1NC(=O)CCC(=O)N/N=C/c1ccc[nH]1`, the max activity is 21.7% (inactive).

Still in this assay, the particulars now being: HepG2 viability, ATP luminescence (CellTiter-Glo), 72 h; at 1 µM; stronger effect = lower value; 0% = untreated, negative = ATP loss.
Turning to `C[C@H]1CN([C@@H](C)CO)C(=O)Cc2cc(NC(=O)CCCCCC(=O)Nc3ccccc3N)ccc2O[C@H]1CN(C)Cc1ccc(C(F)(F)F)cc1`, the max activity was -22.7% (inactive).

The same assay, now with this note: HepG2 viability, ATP luminescence (CellTiter-Glo), 72 h; at 2.85 µM; stronger effect = lower value; 0% = untreated, negative = ATP loss.
Regarding `O=c1[nH]c(=O)n([C@H]2C[C@H](O)[C@@H](CO)O2)cc1F`, the max activity was -50.3% (inactive). On the same count and under the same terms, with `CC(Oc1cccc(Cl)c1)C(=O)NCCCCc1ccccc1` (stereo not drawn) the figure was 18.7% (inactive). Take `O=C(O)c1ccccc1C(=O)Nc1ccc(Oc2ccc3ccccc3c2)cc1`: the max activity was -28.2% (inactive).

The same assay, now with this note: HepG2 viability, ATP luminescence (CellTiter-Glo), 72 h; at 8 µM; stronger effect = lower value; 0% = untreated, negative = ATP loss.
Turning to `CN(c1ccc(NC(=O)CCc2c[nH]c3ccccc23)cc1)c1ccccn1`, the max activity was -31.2% (inactive).

Take `CO[C@H]1CN(C)C(=O)c2cc(NC(=O)NC(C)C)ccc2OC[C@H](C)N(Cc2ccc(-c3ccccn3)cc2)C[C@@H]1C`: the max activity was -24.8% (inactive). Regarding `Nc1nc2cc3c(cc2cc1C(=O)NCCc1c[nH]c2ccccc12)OCO3`, the max activity was -32.5% (inactive).

The same assay, now with this note: HepG2 viability, ATP luminescence (CellTiter-Glo), 72 h; at 23.5 µM; stronger effect = lower value; 0% = untreated, negative = ATP loss.
As for `N#C[C@H]1N[C@H](CO)[C@H]1c1ccc(C#Cc2ccccc2F)cc1`, the max activity was -26.9% (inactive).

The same assay, now with this note: HepG2 viability, ATP luminescence (CellTiter-Glo), 72 h; at 26 µM; stronger effect = lower value; 0% = untreated, negative = ATP loss.
In the case of `Cc1ccc(/C=N/Nc2ccc3ccccc3n2)o1`, the max activity is -46.4% (inactive). Still for that read-out and setting: then `CC(=O)Oc1ccc(-c2ccc(C(=O)Nc3cccc(S(=O)(=O)N4CCOCC4)c3)cc2)cc1`, with -21.6% (inactive); and `O=c1cc(-c2ccccc2)oc2ccc3ccccc3c12`, with -21.9% (inactive). For `CN(CCO)c1ccc(/C=N/Nc2nncc3ccccc23)cc1`, the max activity was -29.7% (inactive). In the case of `O=C(NCc1cccnc1)C1Cc2c(-c3ccc(Cl)cc3)ccnc2O1` (stereo not drawn), the max activity was -18.3% (inactive). The same measure, in the same setting: with `Cc1cccc(NC(=O)CN2CCN(C(=O)CNC(=O)c3ccc(-c4ccccc4)cc3)CC2)c1C` the figure was -36.3% (inactive); with `CC(C)(C)c1ccc(Oc2ccc(NC(=O)C3CC=CCC3C(=O)O)cc2)cc1` (stereo not drawn), 17.4% (inactive).

Consider `Cc1ccsc1/C=N/Nc1ccc(C(=O)O)cc1`, for which the max activity was -27.6% (inactive).

Consider `O=C(C[C@H]1C[C@H]2c3cc(NS(=O)(=O)c4ccc(F)cc4)ccc3O[C@H]2[C@H](CO)O1)NCc1ccc(Oc2ccccc2)cc1`, for which the max activity is 21.5% (inactive). Still for that read-out and setting: with `O=c1c(Cl)cc(Cl)nn1-c1ccccc1` the figure was -34.4% (inactive); with `CCCN(C)C[C@H]1Oc2ncc(-c3ccccc3)cc2C(=O)N([C@@H](C)CO)C[C@H]1C`, 18.2% (inactive). The same measure, in the same setting: then `C#CCOCCOCCOCCNc1nc(N2CCN(C(=O)CCCCCCCCCCNC(=O)Cn3cc(C[C@@H](C)O)nn3)CC2)nc(N2CCN(C(=O)CCCCCCCCCCNC(=O)[C@H](CO)n3cc(CCCSC)nn3)CC2)n1`, with 39.2% (inactive).
